In the supplement of paper PMC11208160:

Experiment: recombinant UMI read abundance after kanamycin selection (control-corrected) (log10(CPM+1)); higher = more efficient recombination; extreme values may be limits of the assay; sequences stand for … in AGTGCAGAGAAAATCGGCCAGTTTTCTCTGCCTGCAGTCCGCATGCCGTGGGACCCCTTGGGTTCTAACCTGTTGCCTAGATTTATGCAGCGGACTGCCTTTCTCCCAAAGTGATAAACCGG…AGGTTGGTTTCACT; site = the 11-nt donor
In short: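 Sequenced counts of recombinant UMIs were turned into CPM, averaged across replicates and scaled with control-derived factors. The reported figure is log10(CPM+1). Those UMIs, each 12 nt long, tagged donor and donor-binding-loop pairs on a plasmid with a promoterless kanamycin gene, screened as a pool in Escherichia coli with IPTG (0.07 mM) plus kanamycin or without selection.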
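Note: IS621 bridge recombinase in Escherichia coli cells against a fixed T5 target plasmid.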

Sequence	recombinant UMI read abundance (log10)
TATTTGACATGGACCGGTTTTCCCGGTAATCCGTATTTGCT (site TAGTTGACTAG)	0.852
TATTTGACATGGACCGGTTTTCCCGGTAATCCGTATTTGCT (site TATTTGACTAG)	2.54
TATTTGACATGGACCGGTTTTCCCGGTAATCCGTATTTGTG (site TATTTGACTCA)	0.0179
TATTTGACATGGACCGGTTTTCCCGGTAATCCGTATTTGTG (site TATTTGCCTCA)	0.00551
TATTTGACATGGACCGGTTTTCCCGGTAATCCGTATTTGTG (site TATTTGGCTCA)	0.00542
TATTTGACATGGACCGGTTTTCCCGGTAATCCGTATTTGTG (site TATTTGTCTCA)	0.0134
TCAAACTCATGGACCGGTTTTCCCGGTAATCCGTATTTGCA (site TCAAACTCTTG)	1.55
TCAAACTCATGGACCGGTTTTCCCGGTAATCCGTATTTGCA (site TCACACTCTTG)	1.25
TCAAACTCATGGACCGGTTTTCCCGGTAATCCGTATTTGCA (site TCAGACTCTTG)	0
TCAAACTCATGGACCGGTTTTCCCGGTAATCCGTATTTGCA (site TCATACTCTTG)	1.92
TCAAAGCCATGGACCGGTTTTCCCGGTAATCCGTATTTGAT (site TCAAAGCCTAT)	0.324
TCAACCCCATGGACCGGTTTTCCCGGTAATCCGTATTTGTG (site TCAACCCCTCA)	0.00442
TCAAGTTCATGGACCGGTTTTCCCGGTAATCCGTATTTGTC (site TCAAGTTCTGA)	2
TCAATCTCATGGACCGGTTTTCCCGGTAATCCGTATTTGGT (site TCAATCTCTAC)	1.11
TCAATTGCATGGACCGGTTTTCCCGGTAATCCGTATTTGCG (site TCAATTGCTCG)	1.52
TCACCGCCATGGACCGGTTTTCCCGGTAATCCGTATTTGGG (site TCACCGCCTCC)	0.0301
TCACCTTCATGGACCGGTTTTCCCGGTAATCCGTATTTGTT (site TCACCTTCTAA)	0.00377
TCACGACCATGGACCGGTTTTCCCGGTAATCCGTATTTGCT (site TCACGACCTAG)	0
TCACGAGCATGGACCGGTTTTCCCGGTAATCCGTATTTGCC (site TCACGAGCTGG)	0.952

Sequence	recombinant UMI read abundance (log10)
TCACGCGCATGGACCGGTTTTCCCGGTAATCCGTATTTGAA (site TCACGCGCTTT)	1.05
TCAGAATCATGGACCGGTTTTCCCGGTAATCCGTATTTGCG (site TCAGAATCTCG)	2.57
TCAGATACATGGACCGGTTTTCCCGGTAATCCGTATTTGCG (site TCAGAAACTCG)	0
TCAGATACATGGACCGGTTTTCCCGGTAATCCGTATTTGCG (site TCAGACACTCG)	0.812
TCAGATACATGGACCGGTTTTCCCGGTAATCCGTATTTGCG (site TCAGAGACTCG)	0.00723
TCAGATACATGGACCGGTTTTCCCGGTAATCCGTATTTGCG (site TCAGATACTCG)	1.33
TCAGCTACATGGACCGGTTTTCCCGGTAATCCGTATTTGAG (site TCAGCTACTCT)	0.878
TCAGCTCCATGGACCGGTTTTCCCGGTAATCCGTATTTGGC (site TCAGCTCCTGC)	0.823
TCAGGCGCATGGACCGGTTTTCCCGGTAATCCGTATTTGGT (site TCAGGCGCTAC)	0.385
TCAGGTCCATGGACCGGTTTTCCCGGTAATCCGTATTTGAT (site TCAGGTCCTAT)	1.68
TCAGTGTCATGGACCGGTTTTCCCGGTAATCCGTATTTGCT (site TCAGTGTCTAG)	2.58
TCATAATCATGGACCGGTTTTCCCGGTAATCCGTATTTGCA (site TCATAATCTTG)	2.3
TCATAATCATGGACCGGTTTTCCCGGTAATCCGTATTTGCA (site TCATACTCTTG)	0.606
TCATAATCATGGACCGGTTTTCCCGGTAATCCGTATTTGCA (site TCATAGTCTTG)	1.06
TCATAATCATGGACCGGTTTTCCCGGTAATCCGTATTTGCA (site TCATATTCTTG)	0.925
TCATACTCATGGACCGGTTTTCCCGGTAATCCGTATTTGAA (site TCATACTCTTA)	0
TCATACTCATGGACCGGTTTTCCCGGTAATCCGTATTTGAA (site TCATACTCTTC)	0.0134
TCATACTCATGGACCGGTTTTCCCGGTAATCCGTATTTGAA (site TCATACTCTTG)	0
TCATACTCATGGACCGGTTTTCCCGGTAATCCGTATTTGAA (site TCATACTCTTT)	1.72

Sequence	recombinant UMI read abundance (log10)
TCATATTCATGGACCGGTTTTCCCGGTAATCCGTATTTGCA (site TCATAATCTTG)	1.5
TCATATTCATGGACCGGTTTTCCCGGTAATCCGTATTTGCA (site TCATACTCTTG)	1.3
TCATATTCATGGACCGGTTTTCCCGGTAATCCGTATTTGCA (site TCATAGTCTTG)	0.00995
TCATATTCATGGACCGGTTTTCCCGGTAATCCGTATTTGCA (site TCATATTCTTG)	0.476
TCATCAACATGGACCGGTTTTCCCGGTAATCCGTATTTGGT (site TCATCAACTAC)	0.0136
TCATCCTCATGGACCGGTTTTCCCGGTAATCCGTATTTGCA (site TCATACTCTTG)	0.933
TCATCCTCATGGACCGGTTTTCCCGGTAATCCGTATTTGCA (site TCATCCTCTTG)	0.741
TCATCCTCATGGACCGGTTTTCCCGGTAATCCGTATTTGCA (site TCATGCTCTTG)	0.00381
TCATCCTCATGGACCGGTTTTCCCGGTAATCCGTATTTGCA (site TCATTCTCTTG)	0
TCATCCTCATGGACCGGTTTTCCCGGTAATCCGTATTTGGC (site TCATCCTCTGC)	0
TCATGCTCATGGACCGGTTTTCCCGGTAATCCGTATTTGCA (site TCATACTCTTG)	0.466
TCATGCTCATGGACCGGTTTTCCCGGTAATCCGTATTTGCA (site TCATCCTCTTG)	0
TCATGCTCATGGACCGGTTTTCCCGGTAATCCGTATTTGCA (site TCATGCTCTTG)	0.764
TCATGCTCATGGACCGGTTTTCCCGGTAATCCGTATTTGCA (site TCATTCTCTTG)	0
TCCAAATCATGGACCGGTTTTCCCGGTAATCCGTATTTGCC (site TCCAAATCTGG)	0
TCCAAATCATGGACCGGTTTTCCCGGTAATCCGTATTTGCC (site TCCAACTCTGG)	0
TCCAAATCATGGACCGGTTTTCCCGGTAATCCGTATTTGCC (site TCCAAGTCTGG)	0
TCCAAATCATGGACCGGTTTTCCCGGTAATCCGTATTTGCC (site TCCAATTCTGG)	0
TCCAACGCATGGACCGGTTTTCCCGGTAATCCGTATTTGCG (site TCCAACGCTCG)	0.0127
